# Laboratory results as given in patent US20240165129A1, “METHODS OF TREATING PAIN AND DEPRESSION” (priority 2022, published 2024).
# Residue numbers refer to the chain shown, from its start.
# Assays:
# [1] = system: primary cultured mouse cortical neurons; test: Acidosis-induced neuronal injury, FDA/PI staining; details: 1 and 10 μM, pH 6.0 for 1.5 h, 24 h
# [2] = target: T1, heteromeric ASIC1a/2a channels (UniProt P78348+Q62962); details: Triol 10 μM, PcTx-1 insensitive cells, pH 6.0, n=4
# T1 sequence (P78348 1-528): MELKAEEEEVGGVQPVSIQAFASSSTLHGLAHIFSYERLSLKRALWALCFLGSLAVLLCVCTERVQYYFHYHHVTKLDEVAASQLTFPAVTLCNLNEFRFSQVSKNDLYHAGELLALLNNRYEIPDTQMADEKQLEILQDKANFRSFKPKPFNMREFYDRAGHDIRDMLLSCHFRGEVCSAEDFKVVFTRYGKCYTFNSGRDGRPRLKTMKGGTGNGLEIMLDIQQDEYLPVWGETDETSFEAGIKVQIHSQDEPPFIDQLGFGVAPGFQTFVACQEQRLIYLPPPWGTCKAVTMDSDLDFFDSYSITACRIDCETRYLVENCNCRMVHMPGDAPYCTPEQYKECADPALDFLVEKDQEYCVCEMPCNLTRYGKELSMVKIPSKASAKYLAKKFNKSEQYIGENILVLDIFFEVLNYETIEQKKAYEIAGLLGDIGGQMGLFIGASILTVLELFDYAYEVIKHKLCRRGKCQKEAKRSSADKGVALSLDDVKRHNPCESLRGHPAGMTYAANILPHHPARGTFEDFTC
# T1 sequence (Q62962 1-512): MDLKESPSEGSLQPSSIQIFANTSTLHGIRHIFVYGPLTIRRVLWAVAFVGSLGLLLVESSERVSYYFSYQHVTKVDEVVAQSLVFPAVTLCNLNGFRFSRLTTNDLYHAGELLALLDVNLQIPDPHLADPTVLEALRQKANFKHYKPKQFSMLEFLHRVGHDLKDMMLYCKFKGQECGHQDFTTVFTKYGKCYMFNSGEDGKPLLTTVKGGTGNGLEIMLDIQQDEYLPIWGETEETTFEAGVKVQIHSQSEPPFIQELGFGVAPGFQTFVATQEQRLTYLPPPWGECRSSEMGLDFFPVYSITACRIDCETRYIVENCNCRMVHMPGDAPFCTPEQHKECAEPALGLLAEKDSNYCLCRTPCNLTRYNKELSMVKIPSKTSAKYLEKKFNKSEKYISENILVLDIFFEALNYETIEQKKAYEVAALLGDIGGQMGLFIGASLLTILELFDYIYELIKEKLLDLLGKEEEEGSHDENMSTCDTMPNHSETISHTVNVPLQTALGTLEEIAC
# Protocol: (§1) ASIC currents were recorded using patch-clamp techniques. Pipette solution contained (mM): 140 CsF, 1 CaCl2, 2 MgCl2, 11 EGTA, 2 tetraethylammonium chloride, 10 HEPES and 4 MgATP, pH 7.3 adjusted with CsOH, 290-300 mOsm. Extracellular Fluid (ECF) contained (mM): 140 NaCl, 5.4 KCl, 2 CaCl2, 1 MgCl2, 10 glucose, and 10 HEPES (320-330 mOsm). A multi-barrel perfusion system (SF-77 Warner Instruments, Hamden, CT) was used to obtain a rapid exchange of ECFs. Currents were recorded with Axopatch 200B amplifier, filtered at 2 kHz, and digitized at 5 kHz using Digidata 1332A. ASIC currents were induced by rapid perfusion of the cells with acidic ECF for 4 seconds. Unless otherwise stated, cells were clamped at a holding potential of −60 mV. […] Data were excluded for statistical analysis when access resistance was >10 MΩ or leak current was >100 pA.
# Only the GFP-positive cells were recorded. The GFP-positive CHO-1a cells may express a mix of homomeric ASIC1a, ASIC2a, or heteromeric ASIC1a/2a channels. Since homomeric ASIC2a channels are not activated at pH 6.0 37, the ASIC currents activated at pH 6.0 might be due to the activation of ASIC1a or ASIC1a/2a channels.
# homomeric ASIC2a = target: T2, homomeric ASIC2a (Rattus norvegicus, UniProt Q62962); test: Patch-clamp recording of ASIC2a currents in CHO cells with transient expression; details: 10 μM, pH drop 7.4 to 4.5, n=4-5
# T2 sequence (Q62962 1-512): T1 sequence (Q62962 1-512)
# Protocol: Chinese hamster ovary (CHO) cells were cultured in F12-K medium (Invitrogen) plus 10% fetal bovine serum, 50 units/nal penicillin, and 50 μg/m1 streptomycin. At ˜50% confluence, CHO cells were co-transfected with cDNAs for rat ASIC1β, ASIC2a, or ASIC3, and that for GFP. GFP-positive cells were used for electrophysiological recordings 24-72 h after transient transfection.
# as §1
# Therefore, the study used pH 6.0 and 4.5 to activate ASIC1β and ASIC2a currents, respectively. […]
# [3] = target: T3, heteromeric ASIC1a/2a channels (Mus musculus, UniProt Q6NXK8+Q925H0); test: ASIC currents in cortical neurons in the presence of PcTx1 (heteromeric channels); details: Triol 10 μM
# T3 sequence (Q6NXK8 1-526): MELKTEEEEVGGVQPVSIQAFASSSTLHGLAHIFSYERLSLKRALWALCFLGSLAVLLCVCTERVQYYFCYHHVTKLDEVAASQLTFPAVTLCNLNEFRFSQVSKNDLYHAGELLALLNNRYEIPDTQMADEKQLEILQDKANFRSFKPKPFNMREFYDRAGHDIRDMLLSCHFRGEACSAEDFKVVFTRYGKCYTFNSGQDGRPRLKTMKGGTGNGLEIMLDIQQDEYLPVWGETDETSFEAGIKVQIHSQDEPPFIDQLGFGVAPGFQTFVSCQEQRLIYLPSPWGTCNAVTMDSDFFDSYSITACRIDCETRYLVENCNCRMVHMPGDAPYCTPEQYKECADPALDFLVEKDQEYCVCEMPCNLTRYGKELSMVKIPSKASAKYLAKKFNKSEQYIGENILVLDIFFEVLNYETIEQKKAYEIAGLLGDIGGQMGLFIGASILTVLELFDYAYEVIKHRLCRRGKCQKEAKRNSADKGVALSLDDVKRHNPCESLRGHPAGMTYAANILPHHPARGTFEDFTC
# T3 sequence (Q925H0 1-512): T1 sequence (Q62962 1-512) with L444I
# Protocol: Mouse cortical neurons were cultured. Pregnant Swiss mice were purchased from Charles River. The use of mice for neuronal cultures was approved by the Institutional Animal Care and Use Committee of Morehouse School of Medicine. Briefly, the brains of fetuses (embryonic day 16) were removed quickly from anesthetized pregnant mice and placed in cold Ca2+/Mg2+-free PBS. Cerebral cortices were dissected and incubated with 0.05% trypsin-EDTA for 10 min at 37° C., followed by trituration. Cells were plated in poly-L-ornithine-coated culture dishes. Cells were initially cultured in minimal essential medium (MEM) with 10% fetal bovine serum (FBS), 10% horse serum, and 25 mM glucose and maintained at 37° C. in a humidified 5% CO2 atmosphere incubator for 24 h. After that, the culture medium was completely replaced by Neurobasal medium supplemented with B-27 (Invitrogen) and then changed twice a week. Neurons were used for the experiments between days 10 and 14.
# ASIC currents were recorded using patch-clamp techniques. Pipette solution contained (mM): 140 CsF, 1 CaCl2, 2 MgCl2, 11 EGTA, 2 tetraethylammonium chloride, 10 HEPES and 4 MgATP, pH 7.3 adjusted with CsOH, 290-300 mOsm. […] Currents were recorded with Axopatch 200B amplifier, filtered at 2 kHz, and digitized at 5 kHz using Digidata 1332A. […]
# [4] = system: primary cultured mouse cortical neurons; details: pH 6.0, n=7-8
structure (smiles),measurement,setting,value
"CC(C)CCC[C@@H](C)[C@H]1CC[C@H]2[C@@H]3C[C@@H](O)[C@@]4(O)C[C@@H](O)CC[C@]4(C)[C@H]3CC[C@]12C [Triol, cholestane-3β, 5α, 6β-triol]",death rate of cortical neurons (PI staining),[1],decrease death rate
same,survival rate of cortical neurons (FDA staining),[1],increase survival rate
same,effect on PcTx-1 insensitive ASIC currents,[2],inhibited these currents
same,effect on ASIC2a currents,homomeric ASIC2a,no significant effect
same,effect on remaining ASIC currents in the presence of PcTx1,"[3]; PcTx1 40 nM, PcTx-1 sensitive neurons, n=9",further inhibited
same,effect on PcTx1 insensitive ASIC currents,[3]; PcTx-1 insensitive neurons (3 of 12 cells),still inhibit these currents
same,acid-induced cytotoxicity (LDH release),[4],significantly decreased
